# Results published in patent US11618743B2, “Herbicidal compounds” (SYNGENTA PARTICIPATIONS AG, priority 2017, dated 2023).
# Legend:
# Experiment in all cases: Post-emergence efficacy, Method A
# Assay type in all cases: in vivo
# [1] = tested on: Eleusine indica (ELEIN); conditions: Application rate 500 g/Ha, evaluated after 13 days; for Control of weed species ELEIN after post-emergence application (100=total damage to plant; 0=no damage to plant): Method A
# In short: (§1)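 Sprayed at 14 days after sowing with an emulsifiable IF50-based formulation in aqueous surfactant/ammonium sulphate diluent, the plants were kept in a 24/16 °C glasshouse with 14 h light. Visual herbicidal damage was recorded after 13 days on a 0–100 scale.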
# [2] = tested on: Ipomoea hederacea (IPOHE); conditions: Application rate 500 g/Ha, evaluated after 13 days; for Control of weed species IPOHE after post-emergence application (100=total damage to plant; 0=no damage to plant): Method A
# In short: as §1
# [3] = tested on: Amaranthus palmeri (AMAPA); conditions: Application rate 500 g/Ha, evaluated after 13 days; for Control of weed species AMAPA after post-emergence application (100=total damage to plant; 0=no damage to plant): Method A
# In short: as §1
# [4] = tested on: Chenopodium album (CHEAL); conditions: Application rate 500 g/Ha, evaluated after 13 days; for Control of weed species CHEAL after post-emergence application (100=total damage to plant; 0=no damage to plant): Method A
# In short: as §1
# [5] = tested on: Euphorbia heterophylla (EPHHL); conditions: Application rate 500 g/Ha, evaluated after 13 days; for Control of weed species EPHHL after post-emergence application (100=total damage to plant; 0=no damage to plant): Method A
# In short: as §1
# [6] = tested on: Echinochloa crus-galli (ECHCG); conditions: Application rate 500 g/Ha, evaluated after 13 days; for Control of weed species ECHCG after post-emergence application (100=total damage to plant; 0=no damage to plant): Method A
# In short: as §1
# [7] = tested on: Lolium perenne (LOLPE); conditions: Application rate 500 g/Ha, evaluated after 13 days; for Control of weed species LOLPE after post-emergence application (100=total damage to plant; 0=no damage to plant): Method A
# In short: as §1
# [8] = tested on: Digitaria sanguinalis (DIGSA); conditions: Application rate 500 g/Ha, evaluated after 13 days; for Control of weed species DIGSA after post-emergence application (100=total damage to plant; 0=no damage to plant): Method A
# In short: as §1
# [9] = tested on: Setaria faberi (SETFA); conditions: Application rate 500 g/Ha, evaluated after 13 days; for Control of weed species SETFA after post-emergence application (100=total damage to plant; 0=no damage to plant): Method A
# In short: as §1
# [10] = 100=total damage to plant, 0=no damage
SMILES,"Control of weed species after post-emergence application, ELEIN [1, 10]","Control of weed species after post-emergence application, IPOHE [2, 10]","Control of weed species after post-emergence application, AMAPA [3, 10]","Control of weed species after post-emergence application, CHEAL [4, 10]","Control of weed species after post-emergence application, EPHHL [5, 10]","Control of weed species after post-emergence application, ECHCG [6, 10]","Control of weed species after post-emergence application, LOLPE [7, 10]","Control of weed species after post-emergence application, DIGSA [8, 10]","Control of weed species after post-emergence application, SETFA [9, 10]",further results
"COP(=O)(C[n+]1ccc(-c2ncccn2)cn1)OC.O=S(=O)([O-])C(F)(F)F [Compound A238, 1-(dimethoxyphosphorylmethyl)-4-pyrimidin-2-yl-pyridazin-1-ium trifluoromethanesulfonate]",30,40,50,20,50,40,10,50,50,
CCOP(=O)(CC[n+]1ccc(-c2cnccn2)cn1)OCC.O=C([O-])C(F)(F)F [Compound A8],,,,,,,,,,Control of weed species ELEIN after post-emergence application (100=total damage to plant; 0=no damage to plant) [1]: 20; Control of weed species IPOHE after post-emergence application (100=total damage to plant; 0=no damage to plant) [2]: 10; Control of weed species AMAPA after post-emergence application (100=total damage to plant; 0=no damage to plant) [3]: 10; Control of weed species CHEAL after post-emergence application (100=total damage to plant; 0=no damage to plant) [4]: 10; Control of weed species EPHHL after post-emergence application (100=total damage to plant; 0=no damage to plant) [5]: 10; Control of weed species ECHCG after post-emergence application (100=total damage to plant; 0=no damage to plant) [6]: 10; Control of weed species LOLPE after post-emergence application (100=total damage to plant; 0=no damage to plant) [7]: 0; Control of weed species DIGSA after post-emergence application (100=total damage to plant; 0=no damage to plant) [8]: 20; Control of weed species SETFA after post-emergence application (100=total damage to plant; 0=no damage to plant) [9]: 20
Nc1cc(-c2cc[n+](CCS(=O)(=O)[O-])nc2)nc(N)n1 [Compound A187],,,,,,,,,,"pest or weed control at 500 g/ha ([1]; Eleusine indica, post-emergence, 312 h, 100=total damage to plant, 0=no damage, read-out: Control of weed species after post-emergence application, ELEIN): 10%; pest or weed control at 500 g/ha ([2]; Ipomoea hederacea, post-emergence, 312 h, 100=total damage to plant, 0=no damage, read-out: Control of weed species after post-emergence application, IPOHE): 20%; pest or weed control at 500 g/ha ([3]; Amaranthus palmeri, post-emergence, 312 h, 100=total damage to plant, 0=no damage, read-out: Control of weed species after post-emergence application, AMAPA): 50%; pest or weed control at 500 g/ha ([4]; Chenopodium album, post-emergence, 312 h, 100=total damage to plant, 0=no damage, read-out: Control of weed species after post-emergence application, CHEAL): 40%; pest or weed control at 500 g/ha ([5]; Euphorbia heterophylla, post-emergence, 312 h, 100=total damage to plant, 0=no damage, read-out: Control of weed species after post-emergence application, EPHHL): 50%; pest or weed control at 500 g/ha ([6]; Echinochloa crus-galli, post-emergence, 312 h, 100=total damage to plant, 0=no damage, read-out: Control of weed species after post-emergence application, ECHCG): 20%; pest or weed control at 500 g/ha ([7]; Lolium perenne, post-emergence, 312 h, 100=total damage to plant, 0=no damage, read-out: Control of weed species after post-emergence application, LOLPE): 10%; pest or weed control at 500 g/ha ([8]; Digitaria sanguinalis, post-emergence, 312 h, 100=total damage to plant, 0=no damage, read-out: Control of weed species after post-emergence application, DIGSA): 20%; pest or weed control at 500 g/ha ([9]; Setaria faberi, post-emergence, 312 h, 100=total damage to plant, 0=no damage, read-out: Control of weed species after post-emergence application, SETFA): 10%"
"N[C@@H](C[n+]1ccc(-c2ncccn2)cn1)C(=O)O [Compound A208, [(1S)-1-carboxy-2-(4-pyrimidin-2-ylpyridazin-1-ium-1-yl)ethyl]ammonium 2,2,2-trifluoroacetate]",60,20,100,80,50,30,10,40,60,
"O=C(O)CC[n+]1ccc(-c2ncc(Cl)c(=O)[nH]2)cn1 [Compound A161, 3-[4-(5-chloro-6-oxo-1H-pyrimidin-2-yl)pyridazin-1-ium-1-yl]propanoic acid 2,2,2-trifluoroacetate]",20,20,30,70,50,20,10,20,10,
"NC(=O)c1cnc(-c2cc[n+](CCC(=O)O)nc2)cn1 [Compound A202, 3-[4-(5-carbamoylpyrazin-2-yl)pyridazin-1-ium-1-yl]propanoic acid 2,2,2-trifluoroacetate]",20,60,100,90,100,80,70,60,70,
O=C(O)c1ccnc(-c2cc[n+](CCCS(=O)(=O)[O-])nc2)n1 [Compound A146],,,,,,,,,,Control of weed species ELEIN after post-emergence application (100=total damage to plant; 0=no damage to plant) [1]: 80; Control of weed species IPOHE after post-emergence application (100=total damage to plant; 0=no damage to plant) [2]: 30; Control of weed species AMAPA after post-emergence application (100=total damage to plant; 0=no damage to plant) [3]: 90; Control of weed species CHEAL after post-emergence application (100=total damage to plant; 0=no damage to plant) [4]: 40; Control of weed species EPHHL after post-emergence application (100=total damage to plant; 0=no damage to plant) [5]: 50; Control of weed species ECHCG after post-emergence application (100=total damage to plant; 0=no damage to plant) [6]: 90; Control of weed species LOLPE after post-emergence application (100=total damage to plant; 0=no damage to plant) [7]: 50; Control of weed species DIGSA after post-emergence application (100=total damage to plant; 0=no damage to plant) [8]: 80; Control of weed species SETFA after post-emergence application (100=total damage to plant; 0=no damage to plant) [9]: 100
CCOP(=O)(CCC[n+]1ccc(-c2ncccn2)cn1)OCC.O=C([O-])C(F)(F)F [Compound A204],0,0,10,20,0,0,0,0,0,
N[C@H](CC[n+]1ccc(-c2ccncn2)cn1)C(=O)O [Compound A235],10,20,10,40,20,30,0,40,30,
O=P([O-])(O)C[n+]1ccc(-c2ccncn2)cn1 [Compound A236],10,40,90,20,30,50,0,80,30,
N#Cc1cnc(-c2cc[n+](CCS(=O)(=O)[O-])nc2)nc1 [Compound A25],,,,,,,,,,Control of weed species ELEIN after post-emergence application (100=total damage to plant; 0=no damage to plant) [1]: 50; Control of weed species IPOHE after post-emergence application (100=total damage to plant; 0=no damage to plant) [2]: 50; Control of weed species AMAPA after post-emergence application (100=total damage to plant; 0=no damage to plant) [3]: 100; Control of weed species CHEAL after post-emergence application (100=total damage to plant; 0=no damage to plant) [4]: 60; Control of weed species EPHHL after post-emergence application (100=total damage to plant; 0=no damage to plant) [5]: 40; Control of weed species ECHCG after post-emergence application (100=total damage to plant; 0=no damage to plant) [6]: 70; Control of weed species LOLPE after post-emergence application (100=total damage to plant; 0=no damage to plant) [7]: 40; Control of weed species DIGSA after post-emergence application (100=total damage to plant; 0=no damage to plant) [8]: 50; Control of weed species SETFA after post-emergence application (100=total damage to plant; 0=no damage to plant) [9]: 60
